The values that follow come from patent US20240067632A1, “WEE1 Degrading Compounds and Uses Thereof” (Bristol-Myers Squibb Company, priority 2022, published 2024).

The target in assay [1] is T1, WEE1 (Homo sapiens, UniProt P30291+Q96SW2).
T1 construct: C-terminal ePL-tagged (DiscoverX, Fremont, CA) full-length WEE1 expression construct; expressed in transfected cells; host or cells: LentiX-HEK293T (Invitrogen), lentiviral transduction; co-expressing GSPT1-GN (G576N, lacking the first 158 amino acids)
The assay can be described thus: WEE1-ePL degradation assay (LentiX-WEE1-ePL-GSPT1-ND cells, InCELL Hunter luminescence, 4 h). To be noted: 293T-LentiX WEE1-ePL cells; for DC50: read-out: 293T-LentiX WEE1-ePL Degradation 4 hr (EC50). The class given is cell-based. Put shortly: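 Degradation EC50 was fitted by a four-parameter logistic model, with the upper limit taken from DMSO wells. Luminescence was read with InCELL Hunter reagent after 30 min at room temperature, following a 4 h, 37° C exposure of 2500 cells/well. Cells were LentiX-HEK293T carrying ePL-tagged full-length WEE1, dosed in 10 points (3-fold) from 1 or 10 uM.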

Assay [2] concerns MKN45 cells. The experiment in a line: MKN45 cell proliferation assay (Cell-Titer-Glo, 120 h). The class given is cell-based. The note with it: for EC50: Homo sapiens, MKN-45, 120 h, Cell-Titer-Glo, read-out: MKN45 Cell Prolif. 120 hr (EC50); for MKN45 Cell Prolif. 120 hr (Ymin-Obs): minimal percent of DMSO control observed in the concentrations tested. Put shortly:
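Cells seeded at 400/well onto pre-printed 10-point half-log dilutions (top 1 or 10 uM, 0.1% DMSO final), in triplicate, and grown 120 h at 37 C. Viability by Cell-Titer-Glo luminescence, blank-subtracted and normalised to DMSO; EC50 from four-parameter logistic fit, with observed minimal % of control recorded as Ymin-obs.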

The mark [3] stands for this setting: lower limit of the fit (0 = luciferase inhibitor, Ymax = DMSO control).
[4] abbreviates: lower limit of the fit (Ymin=0 luciferase inhibitor, Ymax DMSO control).

Read-outs that look alike come from different tables or passages of the source. Some results are limits rather than exact numbers.

As a reminder, the EC50 is the midpoint of the concentration-response curve.

With `CNC(=O)c1ccc2cc(CN3CC[C@H](Oc4ccc5c(c4)CN(C4CCC(=O)NC4=O)C5=O)C3)ccc2n1` (stereo partly drawn) [6-{[(3S)-3-{[2-(2,6-dioxopiperidin-3-yl)-1-oxo-2,3-dihydro-1H-isoindol-5-yl]oxy}pyrrolidin-1-yl]methyl}-N-methylquinoline-2-carboxamide], the “293T-LentiX WEE1-ePL Degradation 4 hr (Ymin)” value in assay [1] (setting [3]) worked out at 26.91. Moreover, in assay [1], the DC50 was 4.27 nM. Moreover, the EC50 in assay [2] (growth inhibition) turned out to be 11.7 nM. Also, in assay [2], the “MKN45 Cell Prolif. 120 hr (Ymin-Obs)” value came to 9.36.

In the case of `N#Cc1ccc(CN2CC[C@H](Oc3ccc4c(c3)CN(C3CCC(=O)NC3=O)C4=O)C2)nc1` (stereo partly drawn) [6-{[(3S)-3-{[2-(2,6-dioxopiperidin-3-yl)-1-oxo-2,3-dihydro-1H-isoindol-5-yl]oxy}pyrrolidin-1-yl]methyl}pyridine-3-carbonitrile], the “293T-LentiX WEE1-ePL Degradation 4 hr (Ymin)” value in assay [1] (setting [3]) came out at 64. The DC50 in assay [1] amounted to 61 nM. Besides, in assay [2] (growth inhibition), the EC50 was above 10000 nM. The “MKN45 Cell Prolif. 120 hr (Ymin-Obs)” value in assay [2] amounted to 69.48.

For `N#Cc1ncc2cc(CN3CC[C@H](Oc4ccc5c(c4)CN(C4CCC(=O)NC4=O)C5=O)C3)ccc2n1` (stereo partly drawn) [6-{[(3S)-3-{[2-(2,6-dioxopiperidin-3-yl)-1-oxo-2,3-dihydro-1H-isoindol-5-yl]oxy}pyrrolidin-1-yl]methyl}quinazoline-2-carbonitrile], in assay [1] (setting [3]), the “293T-LentiX WEE1-ePL Degradation 4 hr (Ymin)” value stood at 35. Also, in assay [1], the DC50 came to 12.1 nM. In addition, in assay [2] (growth inhibition), the EC50 was found to be 73 nM. Besides, in assay [2], the “MKN45 Cell Prolif. 120 hr (Ymin-Obs)” value worked out at 17.27.

Consider `N#Cc1ccc2cc(CN3CC[C@H](Oc4ccc5c(c4)CN(C4CCC(=O)NC4=O)C5=O)C3)ccc2n1` (stereo partly drawn) [6-{[(3S)-3-{[2-(2,6-dioxopiperidin-3-yl)-1-oxo-2,3-dihydro-1H-isoindol-5-yl]oxy}pyrrolidin-1-yl]methyl}quinoline-2-carbonitrile], for which the “293T-LentiX WEE1-ePL Degradation 4 hr (Ymin)” value in assay [1] (setting [3]) was determined as 27.49. Besides, the DC50 in assay [1] is 3.05 nM. Moreover, the EC50 in assay [2] (growth inhibition) stood at 7.92 nM. Also, in assay [2], the “MKN45 Cell Prolif. 120 hr (Ymin-Obs)” value turned out to be 9.504.

`NC(=O)c1ccc2cc(CN3CC[C@H](Oc4ccc5c(c4)CN(C4CCC(=O)NC4=O)C5=O)C3)ccc2n1` (stereo partly drawn) [6-{[(3S)-3-{[2-(2,6-dioxopiperidin-3-yl)-1-oxo-2,3-dihydro-1H-isoindol-5-yl]oxy}pyrrolidin-1-yl]methyl}quinoline-2-carboxamide]: the “293T-LentiX WEE1-ePL Degradation 4 hr (Ymin)” value in assay [1] (setting [3]) came out at 26.545. Moreover, the DC50 in assay [1] stood at 3.53 nM. For the same compound, in assay [2] (growth inhibition), the EC50 amounted to 17.1 nM. The “MKN45 Cell Prolif. 120 hr (Ymin-Obs)” value in assay [2] amounted to 10.71.

As for `N#Cc1cnc2ccc(CN3CC[C@H](Oc4ccc5c(c4)CN(C4CCC(=O)NC4=O)C5=O)C3)cc2c1` (stereo partly drawn) [6-{[(3S)-3-{[2-(2,6-dioxopiperidin-3-yl)-1-oxo-2,3-dihydro-1H-isoindol-5-yl]oxy}pyrrolidin-1-yl]methyl}quinoline-3-carbonitrile], the “293T-LentiX WEE1-ePL Degradation 4 hr (Ymin)” value in assay [1] (setting [3]) is 33. Also, the DC50 in assay [1] came out at 4.18 nM. Moreover, the EC50 in assay [2] (growth inhibition) is 44 nM. In addition, in assay [2], the “MKN45 Cell Prolif. 120 hr (Ymin-Obs)” value is listed as 12.18.

In the case of `N#Cc1ccc2cc(CN3CC[C@H](Oc4ccc5c(c4F)CN(C4CCC(=O)NC4=O)C5=O)C3)ccc2n1` (stereo partly drawn) [6-{[(3S)-3-{[2-(2,6-dioxopiperidin-3-yl)-4-fluoro-1-oxo-2,3-dihydro-1H-isoindol-5-yl]oxy}pyrrolidin-1-yl]methyl}quinoline-2-carbonitrile], the “293T-LentiX WEE1-ePL Degradation 4 hr (Ymin)” value in assay [1] (setting [3]) was determined as 47. In assay [1], the DC50 was determined as 61.5 nM. The EC50 in assay [2] (growth inhibition) was 1430 nM. The “MKN45 Cell Prolif. 120 hr (Ymin-Obs)” value in assay [2] stood at 62.465.

Regarding `N#Cc1ccc2cc(CN3CC[C@H](Oc4cc5c(cc4F)C(=O)N(C4CCC(=O)NC4=O)C5)C3)ccc2n1` (stereo partly drawn) [6-{[(3S)-3-{[2-(2,6-dioxopiperidin-3-yl)-6-fluoro-1-oxo-2,3-dihydro-1H-isoindol-5-yl]oxy}pyrrolidin-1-yl]methyl}quinoline-2-carbonitrile], the “293T-LentiX WEE1-ePL Degradation 4 hr (Ymin)” value in assay [1] (setting [3]) is 30.5. For the same compound, in assay [1], the DC50 was 5.28 nM. In addition, the EC50 in assay [2] (growth inhibition) was 23.8 nM. Further, the “MKN45 Cell Prolif. 120 hr (Ymin-Obs)” value in assay [2] is 8.55.

With `N#Cc1ccc2cc(CN3CC[C@H](Oc4cc(F)c5c(c4)CN(C4CCC(=O)NC4=O)C5=O)C3)ccc2n1` (stereo partly drawn) [6-{[(3S)-3-{[2-(2,6-dioxopiperidin-3-yl)-7-fluoro-1-oxo-2,3-dihydro-1H-isoindol-5-yl]oxy}pyrrolidin-1-yl]methyl}quinoline-2-carbonitrile], the “293T-LentiX WEE1-ePL Degradation 4 hr (Ymin)” value in assay [1] (setting [3]) turned out to be 100.5. Also, the EC50 in assay [2] (growth inhibition) was above 10000 nM. In addition, in assay [2], the “MKN45 Cell Prolif. 120 hr (Ymin-Obs)” value stood at 84.865.

Regarding `N#Cc1ccc2cc(CN3C[C@@H](Oc4ccc5c(c4)CN(C4CCC(=O)NC4=O)C5=O)C(F)(F)C3)ccc2n1` (stereo partly drawn) [6-{[(4R)-4-{[2-(2,6-dioxopiperidin-3-yl)-1-oxo-2,3-dihydro-1H-isoindol-5-yl]oxy}-3,3-difluoropyrrolidin-1-yl]methyl}quinoline-2-carbonitrile], the “293T-LentiX WEE1-ePL Degradation 4 hr (Ymin)” value in assay [1] (setting [3]) is 30.83. Also, in assay [1], the DC50 came out at 20.2 nM. The EC50 in assay [2] (growth inhibition) was found to be 22.9 nM. Besides, in assay [2], the “MKN45 Cell Prolif. 120 hr (Ymin-Obs)” value was 22.8.

For `O=C1CC[C@@H](N2Cc3cc(O[C@H]4CCN(Cc5ccc6ncccc6c5)C4)ccc3C2=O)C(=O)N1` [(3R)-3-(1-oxo-5-{[(3S)-1-[(quinolin-6-yl)methyl]pyrrolidin-3-yl]oxy}-2,3-dihydro-1H-isoindol-2-yl)piperidine-2,6-dione], the “293T-LentiX WEE1-ePL Degradation 4 hr (Ymin)” value in assay [1] (setting [3]) amounted to 26.94. Besides, the DC50 in assay [1] was determined as 3.55 nM. In addition, the EC50 in assay [2] (growth inhibition) turned out to be 26.5 nM. For the same compound, the “MKN45 Cell Prolif. 120 hr (Ymin-Obs)” value in assay [2] came out at 12.45.

Take `O=C1CC[C@@H](N2Cc3cc(O[C@H]4CCN(Cc5ccc6nc(N7CCOCC7)ncc6c5)C4)ccc3C2=O)C(=O)N1` [(3R)-3-(5-{[(3S)-1-{[2-(morpholin-4-yl)quinazolin-6-yl]methyl}pyrrolidin-3-yl]oxy}-1-oxo-2,3-dihydro-1H-isoindol-2-yl)piperidine-2,6-dione]: the “293T-LentiX WEE1-ePL Degradation 4 hr (Ymin)” value in assay [1] (setting [4]) is reported as 31.07. Further, in assay [1], the DC50 turned out to be 46.3 nM. In assay [2], the EC50 is 23.8 nM and the “MKN45 Cell Prolif. 120 hr (Ymin-Obs)” value is 17.43.

Consider `O=C1CC[C@@H](N2Cc3cc(O[C@H]4CCN(Cc5ccc6nc(C7CCOCC7)ccc6c5)C4)ccc3C2=O)C(=O)N1` [(3R)-3-(5-{[(3S)-1-{[2-(oxan-4-yl)quinolin-6-yl]methyl}pyrrolidin-3-yl]oxy}-1-oxo-2,3-dihydro-1H-isoindol-2-yl)piperidine-2,6-dione], for which, in assay [1] (setting [3]), the “293T-LentiX WEE1-ePL Degradation 4 hr (Ymin)” value was found to be 33. Also, the DC50 in assay [1] was 6.75 nM. Also, the EC50 in assay [2] (growth inhibition) was 6.12 nM. In assay [2], the “MKN45 Cell Prolif. 120 hr (Ymin-Obs)” value is reported as 9.677.

As for `O=C1CC[C@@H](N2Cc3cc(O[C@H]4CCN(Cc5cc(F)c6nc(C7CCOCC7)ccc6c5)C4)ccc3C2=O)C(=O)N1` [(3R)-3-(5-{[(3S)-1-{[8-fluoro-2-(oxan-4-yl)quinolin-6-yl]methyl}pyrrolidin-3-yl]oxy}-1-oxo-2,3-dihydro-1H-isoindol-2-yl)piperidine-2,6-dione], the “293T-LentiX WEE1-ePL Degradation 4 hr (Ymin)” value in assay [1] (setting [4]) is listed as 32.17. In assay [1], the DC50 is 9.49 nM. In addition, in assay [2], the EC50 came to 2.19 nM and the “MKN45 Cell Prolif. 120 hr (Ymin-Obs)” value amounted to 9.2.
